Reference: patent publication US10906977B2, “Enhancing the therapeutic activity of immune checkpoint inhibitor” (Maine Medical Center Research Institute, priority 2016, dated 2021)

Tests used:
[1] = test system: chick chorioallantoic membrane (CAM); experiment: Chick CAM angiogenesis induced by soluble RGD collagen peptides; type: in vivo
Method: (§1) The chick chorioallantoic membrane (CAM) assays were carried out with some modifications (19). For all experiments CAMs of 10-day-old chick embryos obtained from Charles River (North Franklin, Conn.) were separated from the shell membrane. Filter discs either non-treated (inflammation assays) pretreated (angiogenesis assays) with cortisone acetate (3.0 mg/ml) containing RPMI only or FGF-2 (40 ng). CAMs were either non-treated or treated topically with Mab XL313, XL166 or a non-specific control antibody (10 μg/embryo every 24 h for three consecutive treatments). […] At the end of the incubation period the embryos were sacrificed and the CAM tissues were analyzed. Angiogenesis was quantified by counting the number of angiogenic branching blood vessels within the area of the filter disc. The angiogenic index was determined by subtracting the mean number of blood vessel branch points from untreated CAMs from each experimental condition. Eight to twelve embryos were used per condition and experiments were repeated at least three times.

P38MAPK [2] = experiment: Phosphorylated P38MAPK in CAM tissue lysates (Western blot); type: in vivo, chick; conditions: peptide treated CAMs; FIG. 6B
Method: as §1, with “For all experiments CAMs of 10-day-old chick embryos obtained from Charles River (North Franklin, Conn.) were separated from the shell membrane.” left out
Whole cell and CAM tissue lysates were collected in RIPA buffer supplemented with 1× protease inhibitor and 1× phosphatase inhibitor and were run on polyacrylamide gels using denaturing conditions. Prior to loading the gels, 6× sample buffer was added to each of the lysates (final concentration 1×) and boiled for five minutes. Twenty to 50 μg of total protein were loaded into each lane. […] Western blot bands were quantified using Image J software based on pixel intensity.

P38MAPK [3] = experiment: Phosphorylated P38MAPK in HUVECs attached to collagen peptides (Western blot); type: cell-based, human; conditions: cells attached to peptide; FIG. 6D
Method: (§2) Endothelial cells (HUVECs or HRMVECs) were incubated in serum free media with 1 mM MgCl2, 0.2 mM MnCl2 in the presence of a Src inhibitor, PP2, (10 μM) a P38MAPK inhibitor, SB202190 (10 μM) or vehicle only (DMSO) for 10 min at 37° C. Treated cells were then seeded on to immobilized P-1 and P-2 and lysates were collected at 15 min.
(§3) Whole cell and CAM tissue lysates were collected in RIPA buffer supplemented with 1× protease inhibitor and 1× phosphatase inhibitor and were run on polyacrylamide gels using denaturing conditions. Prior to loading the gels, 6× sample buffer was added to each of the lysates (final concentration 1×) and boiled for five minutes. Twenty to 50 μg of total protein were loaded into each lane. […] Gels were run at 60 volts (v) until the dye front passed through the stacking gel, and then the voltage was increased to 100V for the remainder of the separation. Precision Plus protein standards (Bio-Rad) were used to visualize migration. Protein was transferred to nitrocellulose membranes using a wet tank system and blocked for 1 h using 10% non-fat dried milk in tris-buffered saline with 0.01% Tween-20 (TBS-T). […] Membranes were washed 3 times in TBS-T for five minutes. Blots were then incubated with HRP conjugated secondary antibodies (1:15000) in 1% non-fat milk in TBS-T for 1 h. […] Western blot bands were quantified using Image J software based on pixel intensity.

P38MAPK [4] = experiment: Phosphorylated P38MAPK in HRMVEC attached to collagen peptides (Western blot); type: cell-based, human; conditions: cells attached to peptide; FIG. 6E
Method: as §2, §3

β3-integrin = molecular target: T1, β3-integrin (Homo sapiens, UniProt P05106+P06756); experiment: β3-integrin phosphorylation in endothelial cells attached to collagen peptides (Western blot); type: cell-based; conditions: absence of growth factors; FIG. 7C
T1 construct: endogenous in cells; host or cells: HUVEC
Method: as §2, §3

[5] = test system: endothelial cells (HUVECs); experiment: Actin stress fiber formation in endothelial cells attached to collagen peptides; type: cell-based, human; conditions: FIG. 7G
Method: CAMs examined for accumulation of granulation tissue were harvested, fixed in 4% PFA and paraffin embedded and sectioned (4 μm) and stained with Giemsa. CAM tissues analyzed via immunofluorescence were harvested, embedded with OCT, snap frozen and sectioned ([…]). Frozen sections were fixed in 50% methanol/50% acetone, air dried and blocked with 2.5% BSA for 1 h at 37° C. For expression of the XL313 and XL166 epitopes as well as monocyte/macrophages, FGF-2 stimulated CAM tissues were stained with Mabs XL313, XL166 (50 μg/ml) or KUL1 (1:250) and then incubated with Alexa-488 labeled secondary antibodies (1:2000 dilution). Co-staining of monocytes/macrophages and the Mab XL313 reactive epitope in FGF-2 stimulated CAMs was performed by sequential staining by first probing with KUL1 (1:250) and then with a biotinconjugated Mab XL313 (50 μg/ml), and with secondary antibodies Alexa-488 and streptavidin Alexa-594 (1:2000) respectively. Using a similar strategy, sections of RGD peptide-treated CAM tissues were analyzed for phosphorylated-P38MAPK in angiogenic vessels by co-incubation of anti-phospho-P38MAPK (1:50) and anti-vWf (1:500) antibodies. […] Cells were allowed to attach for 15, 30, or 60 min in the absence of serum and were fixed with 4% PFA. Fixed cells were washed and blocked with 2.5% BSA and stained with anti-YAP (1:200) and phalloidin (1:500). […]

HRMVEC = experiment: Endothelial cell proliferation with soluble RGD peptides; type: cell-based, human; conditions: 100 ng/ml, 24 hours; FIG. 8D
Method: (§4) HUVECs (WT, shYAP1 or control transfected) or HRMVECs were plated at 2,000 cells per well with complete EGM-2 media containing 2.0% FBS in the absence or presence of P-1, P-2 or P-C (100 ng/ml) and allowed to grow for 24 hours. Cell growth was monitored using a BrdU or MMT assay kits according to manufacturer's instructions. All assays were completed at least three times in triplicate wells.

HUVEC = experiment: as above; type: cell-based, human; conditions: 100 ng/ml, 24 hours; FIG. 8C
Method: as §4

LAG3 = experiment: Checkpoint molecule expression in human T-cell lines stimulated with collagen peptides (Western blot); type: cell-based; conditions: Jurkat and CCL120.1; FIG. 35
Method: In order to confirm the functional ability of the XL313 cryptic collagen peptide P2 to regulate expression of the immune suppressive checkpoint molecule LAG3, αvβ3 expressing human T-cell lines Jurkat and CCL120.1 were stimulated with the cryptic collagen peptide P2 or control collagen peptides P1 or PC. Whole cell lysates from were analyzed for expression of PD-L1 and beta actin (β-Actin).

T1 sequence (P05106 27-788): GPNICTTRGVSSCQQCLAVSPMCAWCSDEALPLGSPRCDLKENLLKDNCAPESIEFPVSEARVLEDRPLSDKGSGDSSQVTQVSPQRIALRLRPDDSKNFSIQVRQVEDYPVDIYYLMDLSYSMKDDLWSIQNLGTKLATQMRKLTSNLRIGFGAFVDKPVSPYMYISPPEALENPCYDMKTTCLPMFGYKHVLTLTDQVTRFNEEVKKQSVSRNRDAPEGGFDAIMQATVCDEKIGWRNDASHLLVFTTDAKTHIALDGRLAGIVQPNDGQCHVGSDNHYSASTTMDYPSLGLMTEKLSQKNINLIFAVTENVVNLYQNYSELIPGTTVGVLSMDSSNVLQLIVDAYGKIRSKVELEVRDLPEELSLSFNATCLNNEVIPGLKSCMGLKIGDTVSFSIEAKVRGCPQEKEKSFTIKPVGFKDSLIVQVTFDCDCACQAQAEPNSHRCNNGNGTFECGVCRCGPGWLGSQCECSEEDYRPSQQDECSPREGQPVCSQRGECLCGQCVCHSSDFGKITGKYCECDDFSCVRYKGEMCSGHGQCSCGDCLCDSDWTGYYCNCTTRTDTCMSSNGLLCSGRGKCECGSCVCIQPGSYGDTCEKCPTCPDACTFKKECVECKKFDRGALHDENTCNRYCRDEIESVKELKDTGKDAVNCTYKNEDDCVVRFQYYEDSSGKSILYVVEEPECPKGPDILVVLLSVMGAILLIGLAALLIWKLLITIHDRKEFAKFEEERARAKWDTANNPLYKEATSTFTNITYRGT
T1 sequence (P06756 31-889 limits assumed): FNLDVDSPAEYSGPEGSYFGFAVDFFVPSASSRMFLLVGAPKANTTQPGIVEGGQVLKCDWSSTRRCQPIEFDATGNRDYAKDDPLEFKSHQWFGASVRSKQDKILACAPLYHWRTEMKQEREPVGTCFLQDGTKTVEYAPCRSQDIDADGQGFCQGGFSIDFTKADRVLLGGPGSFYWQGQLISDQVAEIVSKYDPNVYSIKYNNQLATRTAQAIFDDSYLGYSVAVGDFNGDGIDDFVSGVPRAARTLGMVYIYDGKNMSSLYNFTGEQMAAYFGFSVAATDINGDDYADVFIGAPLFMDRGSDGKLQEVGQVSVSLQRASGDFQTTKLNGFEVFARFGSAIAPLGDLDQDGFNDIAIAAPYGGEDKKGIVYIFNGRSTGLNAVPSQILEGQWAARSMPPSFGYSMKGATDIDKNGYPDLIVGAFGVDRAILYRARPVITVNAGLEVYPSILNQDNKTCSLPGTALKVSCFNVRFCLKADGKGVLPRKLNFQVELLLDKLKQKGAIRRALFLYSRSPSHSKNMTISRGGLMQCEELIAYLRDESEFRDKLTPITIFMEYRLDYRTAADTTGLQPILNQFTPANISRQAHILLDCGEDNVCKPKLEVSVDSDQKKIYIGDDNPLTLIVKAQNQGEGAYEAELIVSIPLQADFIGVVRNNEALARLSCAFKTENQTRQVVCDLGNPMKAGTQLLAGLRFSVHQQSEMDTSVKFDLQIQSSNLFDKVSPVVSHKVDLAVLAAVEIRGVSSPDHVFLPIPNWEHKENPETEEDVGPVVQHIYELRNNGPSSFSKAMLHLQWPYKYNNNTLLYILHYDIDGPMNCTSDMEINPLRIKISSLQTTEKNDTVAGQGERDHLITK
T1 sequence (P06756 891-1048 partner limits assumed): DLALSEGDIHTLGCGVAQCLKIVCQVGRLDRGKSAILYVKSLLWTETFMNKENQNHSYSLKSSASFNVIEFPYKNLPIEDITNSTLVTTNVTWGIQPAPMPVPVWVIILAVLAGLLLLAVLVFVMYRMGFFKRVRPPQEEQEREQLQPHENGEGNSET

Sequence: CQGPRGDKGEC [Mab P-2]
- dose dependent induction of CAM angiogenesis ([1]; FIG. 5B): dose dependently enhanced angiogenesis
- dose of maximum induction of angiogenesis ([1]; FIG. 5B): 100 ng/CAM
- induction of CAM angiogenesis as compared to no treatment ([1]; soluble peptide, FIG. 5C): induced angiogenesis
- increase in phosphorylation of P38MAPK in CAM tissues as compared to controls (P38MAPK [2]): 4 fold
- phosphorylation of P38MAPK in HUVECs, as compared to P-1 (P38MAPK [3]): enhanced phosphorylation of P38MAPK
- phosphorylation of P38MAPK in HRMVEC, as compared to P-1 (P38MAPK [4]): enhanced phosphorylation of P38MAPK
- increase of β3 phosphorylation as compared to P-1 (β3-integrin): over 3 fold
- actin stress fiber formation as compared to P-1 [5]: accelerated actin stress fiber formation
- HRMVEC growth with soluble peptide (HRMVEC): enhanced endothelial cell growth
- HUVEC growth with soluble peptide (HUVEC): enhanced endothelial cell growth
- expression of LAG3 in human T-cells (LAG3): induces expression of the immunosuppressive molecule LAG3
- levels of PD-L1 in stimulated T-cells as compared to controls (LAG3): clear increase in the levels of PD-L1
